Results as given in ChEMBL document CHEMBL4680302, “Biologic-like In Vivo Efficacy with Small Molecule Inhibitors of TNFα Identified Using Scaffold Hopping and Structure-Based Drug Design Approaches” (J Med Chem, 2020).
≈ marks a conversion by molar mass, not a printed value. Calls of active or inactive are those of the source. The calls are words filed in the database; no cut-off is given here.

Tests used:
Lymphotoxin-beta = biological target: T1, Lymphotoxin-beta (Homo sapiens, UniProt Q06643); assay: Inhibition of LTbeta (unknown origin)
T1 sequence (Q06643 whole entry): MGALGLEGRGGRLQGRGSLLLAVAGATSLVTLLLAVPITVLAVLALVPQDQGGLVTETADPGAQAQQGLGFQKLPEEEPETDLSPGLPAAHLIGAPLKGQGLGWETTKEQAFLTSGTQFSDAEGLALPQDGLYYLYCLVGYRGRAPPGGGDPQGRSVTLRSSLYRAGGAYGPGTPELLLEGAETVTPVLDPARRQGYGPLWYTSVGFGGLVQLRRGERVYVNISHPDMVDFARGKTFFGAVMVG

[1] = Volume of distribution at steady state in mouse at 0.5 mg/kg, iv; assay type: ADME, organism-based; conditions: in vivo, read-out: Vdss
[2] = Solubility of compound; assay type: physicochemical
[3] = Drug exposure in TNFalpha-induced C57BL/6J mouse at 25 mg/kg, po pretreated with compound prior to 1 hr of TNFalpha challenge and measured at 3 hrs post dose; assay type: ADME, organism-based; conditions: in vivo, read-out: Drug uptake
[4] = Cmax in mouse at 2 mg/kg, po; assay type: ADME, organism-based; design: route oral, dose 2 mg/kg; conditions: in vivo
Mus musculus [5] = assay: Antiinflammatory activity in TNFalpha-induced C57BL/6J mouse assessed as inhibition of serum IL-6 levels at 5 to 25 mg/kg, po pretreated with compound prior to 1 hr of TNFalpha challenge and measured 2 hrs post TBFalpha challenge by ELISA; assay type: functional, organism-based; conditions: dose 5-25 mg/kg, time 3.0 hrs
[6] = biological target: T2, Tumor necrosis factor ligand superfamily member 6 (Homo sapiens, UniProt P48023); assay: Inhibition of FasL (unknown origin)
T2 sequence (P48023 whole entry): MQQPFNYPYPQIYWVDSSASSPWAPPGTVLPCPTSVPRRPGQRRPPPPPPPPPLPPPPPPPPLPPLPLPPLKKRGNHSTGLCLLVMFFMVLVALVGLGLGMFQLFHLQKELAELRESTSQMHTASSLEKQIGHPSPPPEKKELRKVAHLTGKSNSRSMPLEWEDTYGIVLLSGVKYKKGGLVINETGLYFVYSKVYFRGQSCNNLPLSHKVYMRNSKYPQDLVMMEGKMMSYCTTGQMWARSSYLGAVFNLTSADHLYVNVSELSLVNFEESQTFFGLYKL

Mus musculus [7] = assay: Antiarthritic activity against anticollagen antibody-induced arthritis BALB/c mouse model assessed as reduction in LPS-induced TNFalpha production administered orally twice daily followed by LPS stimulation after 6 hrs measured on day 12 by RT-PCR analysis; assay type: functional, organism-based; conditions: dose 2-10 mg/kg, time 12.0 day
CD40 ligand = biological target: T3, CD40 ligand (Homo sapiens, UniProt P29965); assay: Inhibition of CD40L (unknown origin)
T3 sequence (P29965 whole entry): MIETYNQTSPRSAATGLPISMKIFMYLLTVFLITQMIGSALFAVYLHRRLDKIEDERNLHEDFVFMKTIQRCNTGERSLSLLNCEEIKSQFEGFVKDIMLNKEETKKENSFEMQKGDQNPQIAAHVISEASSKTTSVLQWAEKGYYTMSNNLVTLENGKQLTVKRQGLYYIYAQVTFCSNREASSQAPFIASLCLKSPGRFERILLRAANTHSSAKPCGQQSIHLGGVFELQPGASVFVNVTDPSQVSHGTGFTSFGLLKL

[8] = Metabolic stability in mouse liver microsomes assessed as half-life; assay type: ADME, Microsome
Tumor necrosis factor [9] = biological target: T4, Tumor necrosis factor (Homo sapiens, UniProt P01375); assay: Inhibition of exogenous human TNFalpha in HEK-Blue-CD40L cells assessed as reduction in TNF-alpha-induced NFkappaB activation incubated for 18 hrs by quanti-blue based SEAP assay; assay type: cell-based
T4 sequence (P01375 whole entry): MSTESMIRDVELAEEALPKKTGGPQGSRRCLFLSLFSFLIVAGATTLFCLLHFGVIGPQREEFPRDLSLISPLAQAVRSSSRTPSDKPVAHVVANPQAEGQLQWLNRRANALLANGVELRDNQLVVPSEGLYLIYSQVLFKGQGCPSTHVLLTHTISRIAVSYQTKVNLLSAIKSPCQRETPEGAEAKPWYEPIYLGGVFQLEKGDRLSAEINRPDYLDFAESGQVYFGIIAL

Mus musculus [10] = assay: Antiarthritic activity against anticollagen antibody-induced arthritis BALB/c mouse model assessed as reduction in LPS-induced IL-6 production administered orally twice daily followed by LPS stimulation after 6 hrs measured on day 12 by RT-PCR analysis; assay type: functional, organism-based; conditions: dose 2-10 mg/kg, time 12.0 day
[11] = Metabolic stability in rat liver microsomes assessed as half-life; assay type: ADME, Microsome
Mus musculus [12] = assay: Antiarthritic activity against anticollagen antibody-induced arthritis BALB/c mouse model assessed as reduction in LPS-induced CXCL12 levels administered orally twice daily followed by LPS stimulation after 6 hrs measured on day 12 by RT-PCR analysis; assay type: functional, organism-based; conditions: dose 2-10 mg/kg, time 12.0 day
[13] = Protein binding in mouse assessed as unbound fraction; assay type: ADME
[14] = Oral bioavailability in mouse at 2 mg/kg; assay type: ADME, organism-based; conditions: in vivo
Mus musculus [15] = assay: Antiarthritic activity against anticollagen antibody-induced arthritis BALB/c mouse model assessed as reduction in LPS-induced CXCL10 levels administered orally twice daily followed by LPS stimulation after 6 hrs measured on day 12 by RT-PCR analysis; assay type: functional, organism-based; conditions: dose 2-10 mg/kg, time 12.0 day
Mus musculus [16] = assay: Antiarthritic activity against anticollagen antibody-induced arthritis BALB/c mouse model assessed as reduction in swelling of digits administered orally twice a day followed by LPS stimulation after 6 hrs measured until day 12; assay type: functional, organism-based; conditions: dose 2-10 mg/kg, time 12.0 day
Mus musculus [17] = assay: Antiarthritic activity against anticollagen antibody-induced arthritis BALB/c mouse model assessed as reduction in paw inflammation administered orally twice a day followed by LPS stimulation after 6 hrs measured until day 12; assay type: functional, organism-based; conditions: dose 2-10 mg/kg, time 12.0 day
[18] = Selectivity ratio of drug exposure in anticollagen antibody-induced arthritis BALB/c mouse model at 10 mg/kg, po BID for 12 days to IC50 for inhibition of human TNFalpha expressed in HEK-Blue-CD40L cells assessed as inhibition of NFkappaB activation by quanti-blue based SEAP assay
[19] = Protein binding in rat assessed as unbound fraction; assay type: ADME
Cytochrome P450 2C9 = Cytochrome P450 2C9 (Homo sapiens, UniProt P11712); assay: Inhibition of recombinant CYP2C9 (unknown origin); assay type: ADME
Cytochrome P450 2C9, sequence (P11712 whole entry): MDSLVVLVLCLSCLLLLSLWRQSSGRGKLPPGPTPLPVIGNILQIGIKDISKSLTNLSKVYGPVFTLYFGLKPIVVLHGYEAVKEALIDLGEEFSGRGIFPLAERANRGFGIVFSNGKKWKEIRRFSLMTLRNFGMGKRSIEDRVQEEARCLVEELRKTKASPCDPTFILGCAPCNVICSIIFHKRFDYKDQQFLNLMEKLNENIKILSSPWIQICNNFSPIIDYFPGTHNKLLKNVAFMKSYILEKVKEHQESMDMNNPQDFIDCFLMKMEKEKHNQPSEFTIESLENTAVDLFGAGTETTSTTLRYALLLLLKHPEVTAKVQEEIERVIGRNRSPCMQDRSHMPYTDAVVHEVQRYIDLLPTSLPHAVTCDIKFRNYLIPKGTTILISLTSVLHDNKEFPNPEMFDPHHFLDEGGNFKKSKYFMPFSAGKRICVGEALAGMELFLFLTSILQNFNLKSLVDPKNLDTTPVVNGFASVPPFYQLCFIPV

Mus musculus [20] = assay: Antiarthritic activity against anticollagen antibody-induced arthritis BALB/c mouse model assessed as reduction in LPS-induced cells expressing B220 receptor administered orally twice daily followed by LPS stimulation after 6 hrs measured on day 12 by RT-PCR analysis; assay type: functional, organism-based; conditions: dose 2-10 mg/kg, time 12.0 day
[21] = Terminal drug exposure in anticollagen antibody-induced arthritis BALB/c mouse model at 2 mg/kg, po BID followed by LPS stimulation after 6 hrs measured on day 12; assay type: ADME, organism-based; conditions: in vivo, time 12 day, read-out: Drug uptake
Cytochrome P450 2C19 = Cytochrome P450 2C19 (Homo sapiens, UniProt P33261); assay: Inhibition of recombinant CYP2C19 (unknown origin); assay type: ADME
Cytochrome P450 2C19, sequence (P33261 whole entry): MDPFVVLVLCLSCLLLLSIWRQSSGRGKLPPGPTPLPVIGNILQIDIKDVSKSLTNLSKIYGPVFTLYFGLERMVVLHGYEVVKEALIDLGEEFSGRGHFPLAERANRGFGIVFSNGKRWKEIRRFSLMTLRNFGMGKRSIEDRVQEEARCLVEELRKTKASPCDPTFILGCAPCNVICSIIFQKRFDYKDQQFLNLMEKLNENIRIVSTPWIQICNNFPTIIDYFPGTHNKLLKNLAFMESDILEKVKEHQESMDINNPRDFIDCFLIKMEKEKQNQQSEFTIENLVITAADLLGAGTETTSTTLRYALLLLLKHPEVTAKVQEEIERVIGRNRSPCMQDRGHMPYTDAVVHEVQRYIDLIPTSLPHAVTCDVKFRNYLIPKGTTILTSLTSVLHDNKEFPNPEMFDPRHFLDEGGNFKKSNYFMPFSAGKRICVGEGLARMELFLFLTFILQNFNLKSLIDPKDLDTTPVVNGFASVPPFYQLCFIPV

[22] = Permeability of the compound across apical to basolateral side of membrane in human Caco-2 cells; assay type: ADME, cell-based; conditions: read-out: permeability
[23] = Drug exposure in TNFalpha-induced C57BL/6J mouse at 5 mg/kg, po pretreated with compound prior to 1 hr of TNFalpha challenge and measured at 3 hrs post dose; assay type: ADME, organism-based; conditions: in vivo, read-out: Drug uptake
Cytochrome P450 3A4 = Cytochrome P450 3A4 (Homo sapiens, UniProt P08684); assay: Inhibition of recombinant CYP3A4 (unknown origin) in presence of BFC as substrate; assay type: ADME
Cytochrome P450 3A4, sequence (P08684 whole entry, the tested form may be a part): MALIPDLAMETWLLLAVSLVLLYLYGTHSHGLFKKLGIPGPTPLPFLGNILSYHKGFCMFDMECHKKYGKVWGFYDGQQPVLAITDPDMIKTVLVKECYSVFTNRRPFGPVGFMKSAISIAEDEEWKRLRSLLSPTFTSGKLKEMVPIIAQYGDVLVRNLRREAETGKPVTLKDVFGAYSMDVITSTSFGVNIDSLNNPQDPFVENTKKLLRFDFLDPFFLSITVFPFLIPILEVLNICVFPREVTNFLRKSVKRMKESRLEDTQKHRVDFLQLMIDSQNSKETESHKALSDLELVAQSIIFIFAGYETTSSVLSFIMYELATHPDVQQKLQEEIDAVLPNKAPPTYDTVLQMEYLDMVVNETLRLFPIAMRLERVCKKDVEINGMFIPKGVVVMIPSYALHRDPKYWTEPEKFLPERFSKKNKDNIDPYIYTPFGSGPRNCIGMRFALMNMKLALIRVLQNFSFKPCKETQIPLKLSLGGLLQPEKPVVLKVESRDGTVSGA

Tumor necrosis factor [24] = biological target: T4, Tumor necrosis factor; assay: Displacement of fluorescent labeled probe from human recombinant His-tagged TNFalpha (77 to 233 residues) expressed in Escherichia coli preincubated for 1 hr followed by fluorogenic probe addition and measured after 3 hrs by HTRF assay
Mus musculus [25] = assay: Antiarthritic activity against anticollagen antibody-induced arthritis BALB/c mouse model assessed as reduction in LPS-induced cells expressing CD3 receptor administered orally twice daily followed by LPS stimulation after 6 hrs measured on day 12 by RT-PCR analysis; assay type: functional, organism-based; conditions: dose 2-10 mg/kg, time 12.0 day

Structure (SMILES): Cc1nc2cc(F)c(-c3cnc(C(C)(C)O)nc3)nc2c(N[C@H](C)c2cc(C#N)ccc2F)c1Cl
- IC50 (Lymphotoxin-beta): > 10000 nM
- Vd [1]: 3.2 L/kg
- solubility [2]: 1 µg/mL (≈ 2.02 µM)
- concentration at 3 h [3]: 1860 nM
- Cmax [4]: 470 nM
- Activity (Mus musculus [5]): Active
- IC50 [6]: > 10000 nM
- Activity (Mus musculus [7]): Dose-dependent effect
- IC50 (CD40 ligand): > 10000 nM
- half-life [8]: 1.3 h
- IC50 (Tumor necrosis factor [9]): 27 nM
- Activity (Mus musculus [10]): Dose-dependent effect
- half-life [11]: 1.15 h
- Activity (Mus musculus [12]): Dose-dependent effect
- Fu [13]: 0.6%
- bioavailability [14]: 58%
- Activity (Mus musculus [15]): Dose-dependent effect
- Activity (Mus musculus [16]): Dose-dependent effect
- Activity (Mus musculus [17]): Dose-dependent effect
- Selectivity ratio [18]: 4.4
- Fu [19]: 0.4%
- IC50 (Cytochrome P450 2C9): 2000 nM
- Activity (Mus musculus [20]): Dose-dependent effect
- concentration at 288 h [21]: 340 nM
- IC50 (Cytochrome P450 2C19): > 20000 nM
- Papp A→B [22]: 20 ×10⁻⁶ cm/s
- concentration at 3 h [23]: 470 nM
- IC50 (Cytochrome P450 3A4): > 20000 nM
- IC50 (Tumor necrosis factor [24]): 25 nM
- Activity (Mus musculus [25]): Dose-dependent effect
